This is an account of results in publication PMC11462627, “SAL0114: a novel deuterated dextromethorphan-bupropion combination with improved antidepressant efficacy and safety profile” (Frontiers in Pharmacology, 2024).

The target of one data set is NMDA receptor. The settings on record: read-out: Ki, NMDA receptor; 3H-MK801 competition, rat brain membranes, mean, n = 4. The method, then:
Membrane preparation was performed as previously described ([Werling et al., 2007]). Briefly, the brains of male Sprague-Dawley rats were dissected for tissue collection. The tissue was then homogenized in ice-cold extraction solution and centrifuged at 40,000 × g for 10 min (minute). The supernatant was discarded, the precipitate was resuspended in extraction solution, and the above steps were repeated two times. Finally, the precipitate was resuspended in a 10-fold volume of resuspension solution and stored at −80°C. Protein concentration was determined using a PierceTM BCA Protein Assay Kit. The competitive binding of the compound and ^3H-MK801 to the NMDA receptor was evaluated utilizing the filtration binding method. This method involves washing unbound radioligands and subsequently quantifying the signal values of the radioligands bound to the NMDA receptor using a Microbeta instrument (catalog number: 2450, Perkin Elmer, Massachusetts, United States).

Data set [1] is described as follows: Pharmacokinetic study in C57BL/6 mice. In kind it is in vivo. The settings on record: plasma DM or deDM, C57BL/6 mice, oral, 20 mg/kg, mean ± SD. From the text:
The assay was built in a way similar to that previously published by [Beconi et al. (2011)] with some modifications. A total of 36 male C57BL/6 mice, weighing between 20 and 22 g, were randomly divided into four groups of nine mice each. […] Mice in each group were numbered 1–9. Following the oral administration of the compounds in each group, blood was collected from the jugular vein at the specified time points, with three mice at each time point and two to three times for each mouse. 1–3 numbered mice had blood collection time points of 0.25, 1.5, and 7 h after the administration of the compounds, 4–6 numbered mice had blood collection time points of 0.5, 2, and 24 h after the administration of the compounds, and 7–9 numbered mice had blood collection time points of 1 and 5 h after the administration of the compounds. All blood samples were collected without anesthesia, and blood was collected in heparinized EP tubes. Plasma was obtained by centrifuging the blood at 10,000 rpm for 2 min at 4°C.

The subject of the next data set is Sprague-Dawley rats. In words: Reserpine-induced hypothermia in rats. It counts as in vivo. The settings on record: oral, 30 min after treatment. Here is the method: A reserpine-induced hypothermia test was performed according to the method described by Rojas-Corrales et al. ([Rojas-Corrales et al., 2004]; [Dhamija et al., 2017]), with some modifications. 80 male Sprague-Dawley rats were administered an intraperitoneal injection of reserpine (4 mg/kg). 18 h after the injection, rectal temperatures were measured using a rectal probe connected to a thermometer (MC-347, Omron Healthcare, Dalian, China). Rats with body temperatures not exceeding 34.5°C were considered successfully modeled. […] An additional group of ten rats not treated with reserpine served as the normal control. After the group assignment, the second phase of compound administration was initiated. The normal and model control groups received oral saline (10 mL/kg), whereas the other groups received their respective compounds orally at the specified doses, all in an equivalent volume (10 mL/kg). Rectal temperatures were measured 30 min after treatment to assess the effect of compounds in each group on the reserpine-induced hypothermia model. All experimental procedures were conducted in strict accordance with guidelines approved by the Institutional Animal Care and Use Committee of Shenzhen Salubris Pharmaceuticals Co., Ltd. A P value of less than 0.05 was considered statistically significant for comparisons between groups.

Another data set relates to C57BL/6J mice. In words: Ammonia-induced cough mouse model. In kind it is in vivo. The settings on record: oral; for cough inhibition rate: 0.5 h post-administration. The method, then: Antitussive effects were investigated using a classical mouse cough model induced by ammonia liquor, with some modifications ([Jiang et al., 2014]; [Adejayan et al., 2019]). An ammonia-induced cough model in male C57BL/6J mice was used to evaluate the antitussive effects using a two-step approach. The initial screening phase aimed to identify the mice with consistent and pronounced cough responses. Individual mice were exposed to 0.2 mL of 13% ammonium hydroxide solution in 500 mL glass vials. A trained observer measured the latency period and recorded the number of coughs over a 3-min period post-exposure. […] Following a 24-h recovery period, 70 eligible mice were randomly allocated to seven treatment groups (n = 10 per group) for the compound evaluation phase. […] All compounds were administered orally at a volume of 10 mL/kg. At 0.5 h post-administration, each mouse was re-exposed to 0.2 mL of 13% ammonia in a 500 mL glass jar for 1 min. Subsequently, the trained observer recorded the number of coughs over a 3-min period following removal from the jar. […] All experimental procedures were conducted in strict compliance with guidelines approved by the Institutional Animal Care and Use Committee of Shenzhen Salubris Pharmaceuticals Co., Ltd., ensuring adherence to ethical standards in animal research. A P value of less than 0.05 was considered statistically significant for comparisons between groups.

In general, Ki refers to the dissociation constant of the complex between target and ligand, obtained from inhibition or displacement. One may read the Cmax as the peak of the concentration-time curve. Regarding deuterated dextromethorphan [deDM], at NMDA receptor, the Ki was 1.9 µM. In data set [1], this substance gave an AUC0-last of 387 ± 163 ng·h/mL and a peak concentration (Cmax) of 269 ± 83 ng/mL. For the same substance, in the data set with Sprague-Dawley rats (reserpine 4 mg/kg i.p. rats, BUP 40 mg/kg, deDM 5 and 10 mg/kg, deDM + BUP 5 + 40 and 10 + 40 mg/kg), the “body temperature compared with the model (vehicle) group” value was “increased the body temperature of model animals in a dose-dependent manner”. Further, the “body temperature, high dose compared with the model (vehicle) group” value in the data set on Sprague-Dawley rats (reserpine rats, 10 mg/kg) is given as “reaching a statistically significant difference”. Besides, in the data set with C57BL/6J mice (deDM 5 and 10 mg/kg, BUP 40 mg/kg, deDM + BUP 5 + 40 and 10 + 40 mg/kg), the “cough inhibition compared with the vehicle group” value is “neither deDM nor BUP significantly inhibited cough”. Also, in the data set with C57BL/6J mice (high dose 10 mg/kg), the cough inhibition rate was found to be 9.1%. Also, the cough inhibition rate in the data set on C57BL/6J mice (low dose 5 mg/kg) is 8.3%.
